Experimental data: patent US20240254119A1 (THIRD HARMONIC BIO, INC., priority 2022, published 2024)
pIC50: −log10 of the molar value.

Tested on: not listed separately
Experiment: Kinetic solubility assay
Format: physicochemical
Settings: kinetic solubility, 50 mM PB (pH 7.4), shaken 24 hours at RT
Procedure, shortened: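 Concentration in the filtrate was determined by UPLC-UV or HPLC-UV with a standard curve. Before that, compound (10 mM DMSO stock) in 50 mM PB at pH 7.4 was agitated 24 h at room temperature, then PTFE-filtered with centrifugation.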

SMILES | Solubility (μM)
O=C(Nc1cc(-c2noc([C@@H]3CC(F)(F)CN3)n2)ccc1Cl)c1cnc2ccccn12 [Compound I-221] | **** (a solubility less than or equal to 2 μM)
COC(=O)N1CC(c2nc(-c3ccc(C)c(NC(=O)c4cnc5cc(OC(C)(C)CO)ccn45)c3)no2)C1 [Compound I-228] | ** (a solubility greater than 10 μM and less than or equal to 50 μM)
CCCS(=O)(=O)N1CCC1c1nc(-c2ccc(C)c(NC(=O)c3cnc4ccccn34)c2)no1 (stereo not drawn) [Compound I-242] | *** (a solubility greater than 2 μM and less than or equal to 10 μM)
COC(=O)N1CC(c2nc(-c3ccc(C)c(NC(=O)c4cnc5cc(OCCO)ccn45)c3)no2)C1 [Compound I-264] | ** (a solubility greater than 10 μM and less than or equal to 50 μM)

Target: T1, BCRP (BCRP-MDCKII monolayer) (Homo sapiens, UniProt Q9UNQ0)
T1 construct: host or cells: MDCKII (canine kidney) cells
T1 sequence (Q9UNQ0 1-655): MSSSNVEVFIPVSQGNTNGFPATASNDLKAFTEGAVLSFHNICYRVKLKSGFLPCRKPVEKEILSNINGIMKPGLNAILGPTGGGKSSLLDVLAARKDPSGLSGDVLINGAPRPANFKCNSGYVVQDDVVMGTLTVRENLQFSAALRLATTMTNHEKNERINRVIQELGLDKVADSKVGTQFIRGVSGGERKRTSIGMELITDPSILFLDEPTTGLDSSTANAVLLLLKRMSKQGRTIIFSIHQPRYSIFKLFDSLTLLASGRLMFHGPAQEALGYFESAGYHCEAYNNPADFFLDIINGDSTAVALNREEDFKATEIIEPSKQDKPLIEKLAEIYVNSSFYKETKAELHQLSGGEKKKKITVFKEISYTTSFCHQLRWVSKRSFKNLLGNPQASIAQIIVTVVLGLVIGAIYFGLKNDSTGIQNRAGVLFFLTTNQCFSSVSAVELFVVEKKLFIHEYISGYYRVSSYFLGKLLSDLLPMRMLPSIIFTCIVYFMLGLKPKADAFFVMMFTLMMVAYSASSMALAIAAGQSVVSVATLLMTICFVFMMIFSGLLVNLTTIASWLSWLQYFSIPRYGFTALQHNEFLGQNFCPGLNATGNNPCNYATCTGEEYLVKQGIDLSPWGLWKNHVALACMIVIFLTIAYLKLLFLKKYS
Experiment: MDCKII-BCRP bidirectional transport assay
Format: in vitro ADME
Settings: not given
Procedure, shortened: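 Efflux ratios were derived from Papp values, alongside recovery, with compounds quantified by LC-MS/MS. Both directions were tested in duplicate across BCRP-MDCKII monolayers used on days 12–15. Incubation ran 120 min at 37° C, 5% CO2, after a 15 min preincubation in assay buffer.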

SMILES | MDCK-BCRP: Efflux Ratio
COC(=O)N1CC(c2nc(-c3ccc(C)c(NC(=O)c4cnc5cc(OC(C)(C)CO)ccn45)c3)no2)C1 [Compound I-228] | 22.9
COC(=O)N1CC(c2nc(-c3ccc(C)c(NC(=O)c4cnc5cc(OCCO)ccn45)c3)no2)C1 [Compound I-264] | 24.2

Same assay, conditions: apical to basolateral

SMILES | MDCK-BCRP: Papp A-B
COC(=O)N1CC(c2nc(-c3ccc(C)c(NC(=O)c4cnc5cc(OC(C)(C)CO)ccn45)c3)no2)C1 [Compound I-228] | 1.08 10^−6 cm/s
COC(=O)N1CC(c2nc(-c3ccc(C)c(NC(=O)c4cnc5cc(OCCO)ccn45)c3)no2)C1 [Compound I-264] | 0.71 10^−6 cm/s

Tested on: KIT phosphorylation in M-07e cells
Experiment: Cell-based KIT phosphorylation in M-07e cells by pKIT ELISA
Design: species or system human
Settings: SCF stimulation
Procedure: Exemplary compounds were tested for ability to inhibit KIT phosphorylation using M-07e cells as monitored by pKIT ELISA. M-07e cells are also represented as M-07E, M-07e, M07-e, M07e, Mo7e, MO7e, M07E and MO7E. Assay procedures and results are described below.
Part I—Procedures for Determining KIT Inhibition inM-07e Cells Using pKTT ELISA Reagents and consumables: • M-07e cells: Initially obtained from Accegen, cat #ABC-TC1313 • p-cKIT Capture ELISA antibody: anti-Human Phospho-CD117/c-kit, R&D cat #DYC3527-5 • Anti-pY-HIRP antibody: R&D cat #DYC3527-5 • 25× wash buffer: Quantikine ELISA Wash Buffer 1, R&D cat #WA126 • PBS: R&D cat #DY006 • 96 well ELISA plates: Clear Polystyrene Microplates, R&D Cat #DY990 • 96 well Tissue culture plates: Corning® 96 Well TC-Treated Microplates, cat #CLS3894 • RPMI medium: ATCC® RPMI-1640 Medium, Cat #30-2001 • FBS: Fetal Bovine Serum, certified, United States Gibco, Thermo-Fisher 16000044 • GM-CSF: Recombinant Human GM-CSF Protein, R&D cat #215-GM • SCF: Recombinant Human SCF Protein, R&D cat #255-SC
• 1. Prepare cells: • a. Culture M-07e cells in RPMI medium+20% serum+GM-CSF+penstrep • To make 50 mL of growth medium • i. 40 mL RPMI media • ii. 10 mL FBS • iii. 10 uL of GM-CSF (100 ug/mL stock) • iv. 0.5 mL pen strep (100×) • b. Harvest cells • c. Re-suspend cells in 100% RPMI media (without serum) to final concentration of 1 million cells/mL • d. Transfer 100 uL of cell solution to 11 columns of a 96 well flat bottom cell culture plate • e. Incubate cells over night at 37 C • 2. Prepare ELISA Plates: • a. Dilute capture antibody to concentration 4 ug/mL in PBS • b. Coat 96 well microplates with 100 uL of capture antibody • c. Seal plates and incubate at RT overnight • d. Wash plates with 300 uL of wash buffer • e. Repeat wash • f. Treat plates with 300 uL of blocking buffer at RT for 1 hour • 3. Addition of compounds: • a. Prepare compound dilutions in RPMI media • i. Top test concentration is 1 uM • ii. Serially dilute compounds 3× for a total of 8 concentrations • b. Add 10 uL of 10× compound dilutions to cells • i. No compounds added in column 11 (for controls) • c. Incubate cells with compounds for 2 hours at 37 C • d. Stimulate cells with SCF for 5 min at concentration of 100 ng/mL (final) • i. In column 11 stimulate top 4 wells. Leave bottom 4 wells unstimulated • e. Remove cell culture media with multichannel pipet • f. Add 110 uL of Lysis buffer to all wells • g. Incubate plates at RT for 30 min while shaking • 4. Transfer 100 uL of cell lysis to each prepared Elisa plate • 5. Add 100 uL of the standard pc-KIT dilutions to the standard wells in column 12 • a. Top concentration=2000 pg/mL • b. 2× dilutions • 6. Incubate ELISA plate with cell lysate for 2 hours at RT • 7. Wash Plate with wash buffer (wash 1) • 8. Repeat wash (wash 2) • 9. […] Add 100 uL of diluted anti-pY-HRP (1/1000 dilution in detection antibody dilution buffer) and incubate 2 hours at RT • 11. Wash plate with wash buffer (wash 1) • 12. Repeat wash (wash 2) • 13. Repeat wash (wash 3) • 14. Add 100 uL of substrate solution to each well • 15. Incubate plates 20 min • Note: Plate development is indicated by aqua color • 16. Add 50 uL of stop solution to each well • 17. Determine optical density on Bitek Synergy Neo2: • a. Make new experiment
Select absorbance 1 set to 450 nm

SMILES | pIC50
O=C(Nc1cc(-c2noc([C@@H]3CC(F)(F)CN3)n2)ccc1Cl)c1cnc2ccccn12 [Compound I-221] | 6.30 to 7.30
CCCS(=O)(=O)N1CCC1c1nc(-c2ccc(C)c(NC(=O)c3cnc4ccccn34)c2)no1 (stereo not drawn) [Compound I-242] | 6.30 to 7.30

Target: T2, PDGFRα (Homo sapiens, UniProt P16234)
T2 construct: purchased Millipore 14-467 (lot 26321_ACTI)
Experiment: Caliper biochemical assay, PDGFRα
Settings: Table 6
Procedure, shortened: (§1)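 Mobility-shift readout: after EDTA quench, fluorescent peptide and product are resolved electrophoretically on a LabChip and measured by fluorescence. Reactions contain enzyme, carboxyfluorescein peptide, ATP, Mn^2+ and compound, run 3 h at 25° C; 100% inhibition control lacks enzyme.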

T2 sequence (P16234 24-1089): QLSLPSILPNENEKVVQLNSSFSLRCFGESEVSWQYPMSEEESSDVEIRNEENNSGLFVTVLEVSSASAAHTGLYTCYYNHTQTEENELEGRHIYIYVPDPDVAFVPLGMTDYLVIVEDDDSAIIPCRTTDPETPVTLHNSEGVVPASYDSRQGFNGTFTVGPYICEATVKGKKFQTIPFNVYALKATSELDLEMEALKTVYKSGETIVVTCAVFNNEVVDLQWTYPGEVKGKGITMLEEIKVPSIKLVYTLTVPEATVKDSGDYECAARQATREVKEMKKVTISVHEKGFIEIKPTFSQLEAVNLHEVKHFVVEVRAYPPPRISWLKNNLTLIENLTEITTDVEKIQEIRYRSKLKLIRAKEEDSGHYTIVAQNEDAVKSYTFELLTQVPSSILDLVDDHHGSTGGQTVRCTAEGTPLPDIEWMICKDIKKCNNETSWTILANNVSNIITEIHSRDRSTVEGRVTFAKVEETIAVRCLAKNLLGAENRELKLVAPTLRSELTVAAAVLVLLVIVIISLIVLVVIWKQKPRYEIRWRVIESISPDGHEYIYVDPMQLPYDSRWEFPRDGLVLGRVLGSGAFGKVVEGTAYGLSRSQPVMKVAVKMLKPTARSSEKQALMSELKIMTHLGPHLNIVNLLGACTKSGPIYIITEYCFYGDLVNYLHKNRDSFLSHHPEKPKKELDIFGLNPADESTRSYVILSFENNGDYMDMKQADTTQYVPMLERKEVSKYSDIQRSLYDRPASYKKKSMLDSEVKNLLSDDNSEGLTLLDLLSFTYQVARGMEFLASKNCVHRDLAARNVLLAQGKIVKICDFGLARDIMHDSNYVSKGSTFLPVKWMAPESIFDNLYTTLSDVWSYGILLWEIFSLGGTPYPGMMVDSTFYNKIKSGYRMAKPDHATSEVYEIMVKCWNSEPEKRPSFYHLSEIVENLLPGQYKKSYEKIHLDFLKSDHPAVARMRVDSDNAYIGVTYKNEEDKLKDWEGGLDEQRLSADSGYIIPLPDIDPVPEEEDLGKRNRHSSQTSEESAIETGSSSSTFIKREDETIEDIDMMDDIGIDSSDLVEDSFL

SMILES | pIC50
O=C(Nc1cc(-c2noc([C@@H]3CC(F)(F)CN3)n2)ccc1Cl)c1cnc2ccccn12 [Compound I-221] | 4.52 to 5.30
COC(=O)N1CC(c2nc(-c3ccc(C)c(NC(=O)c4cnc5cc(OC(C)(C)CO)ccn45)c3)no2)C1 [Compound I-228] | 6.30 to 7.30
COC(=O)N1CC(c2nc(-c3ccc(C)c(NC(=O)c4cnc5cc(OCCO)ccn45)c3)no2)C1 [Compound I-264] | 6.30 to 7.30

Target: T3, wtKIT (Homo sapiens, UniProt P10721)
T3 construct: 1888289AM in the reaction mixtures
Experiment: HTRF biochemical assay, wtKIT (phosphorylation of a peptide substrate)
Settings: Table 4
Procedure, shortened: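 HTRF read-out of FAM-peptide (1 µM) phosphorylation after anti-phosphotyrosine antibody addition and EDTA quench. Reaction: 5.0 nM wtKIT, 400 µM ATP, 10 mM Mn2+, HEPES pH 7.5, 1% DMSO, 3 h, 25 °C; optional enzyme-compound preincubation; enzyme level set for 10-20% conversion.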

T3 sequence (P10721 26-976): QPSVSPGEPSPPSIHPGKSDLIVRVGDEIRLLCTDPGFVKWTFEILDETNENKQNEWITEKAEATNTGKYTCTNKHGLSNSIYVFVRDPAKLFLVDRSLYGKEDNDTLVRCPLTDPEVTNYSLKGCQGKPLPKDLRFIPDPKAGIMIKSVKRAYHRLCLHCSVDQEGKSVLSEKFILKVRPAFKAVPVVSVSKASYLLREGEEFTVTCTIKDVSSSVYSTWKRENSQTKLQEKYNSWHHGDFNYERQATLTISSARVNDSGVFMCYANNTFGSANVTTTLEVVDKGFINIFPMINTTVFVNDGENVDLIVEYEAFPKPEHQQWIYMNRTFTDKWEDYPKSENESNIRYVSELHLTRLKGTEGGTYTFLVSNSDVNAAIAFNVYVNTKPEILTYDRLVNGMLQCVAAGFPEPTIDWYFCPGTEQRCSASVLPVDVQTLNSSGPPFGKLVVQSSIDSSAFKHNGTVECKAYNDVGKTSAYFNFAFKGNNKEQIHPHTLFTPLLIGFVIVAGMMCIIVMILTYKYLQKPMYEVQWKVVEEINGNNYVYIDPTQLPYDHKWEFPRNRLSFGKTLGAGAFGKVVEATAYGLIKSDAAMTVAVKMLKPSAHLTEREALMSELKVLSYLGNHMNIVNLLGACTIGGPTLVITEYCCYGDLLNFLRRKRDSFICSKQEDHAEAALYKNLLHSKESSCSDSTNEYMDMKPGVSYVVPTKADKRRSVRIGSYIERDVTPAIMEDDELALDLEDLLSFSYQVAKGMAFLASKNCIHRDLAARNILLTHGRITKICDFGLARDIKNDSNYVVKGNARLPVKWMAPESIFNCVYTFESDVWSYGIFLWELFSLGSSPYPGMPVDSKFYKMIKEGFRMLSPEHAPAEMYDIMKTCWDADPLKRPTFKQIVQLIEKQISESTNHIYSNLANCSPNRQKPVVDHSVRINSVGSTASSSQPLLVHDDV

SMILES | pIC50
O=C(Nc1cc(-c2noc([C@@H]3CC(F)(F)CN3)n2)ccc1Cl)c1cnc2ccccn12 [Compound I-221] | 6.30 to 7.30
COC(=O)N1CC(c2nc(-c3ccc(C)c(NC(=O)c4cnc5cc(OC(C)(C)CO)ccn45)c3)no2)C1 [Compound I-228] | 6.30 to 7.30
CCCS(=O)(=O)N1CCC1c1nc(-c2ccc(C)c(NC(=O)c3cnc4ccccn34)c2)no1 (stereo not drawn) [Compound I-242] | ≥ 7.30
COC(=O)N1CC(c2nc(-c3ccc(C)c(NC(=O)c4cnc5cc(OCCO)ccn45)c3)no2)C1 [Compound I-264] | ≥ 7.30

Target: T4, CSF-1R (Homo sapiens, UniProt P07333)
T4 construct: purchased Invitrogen PV3249 (lot 662393N)
Experiment: Caliper biochemical assay, CSF-1R
Settings: Table 6
Procedure, shortened: as §1

T4 sequence (P07333 20-972): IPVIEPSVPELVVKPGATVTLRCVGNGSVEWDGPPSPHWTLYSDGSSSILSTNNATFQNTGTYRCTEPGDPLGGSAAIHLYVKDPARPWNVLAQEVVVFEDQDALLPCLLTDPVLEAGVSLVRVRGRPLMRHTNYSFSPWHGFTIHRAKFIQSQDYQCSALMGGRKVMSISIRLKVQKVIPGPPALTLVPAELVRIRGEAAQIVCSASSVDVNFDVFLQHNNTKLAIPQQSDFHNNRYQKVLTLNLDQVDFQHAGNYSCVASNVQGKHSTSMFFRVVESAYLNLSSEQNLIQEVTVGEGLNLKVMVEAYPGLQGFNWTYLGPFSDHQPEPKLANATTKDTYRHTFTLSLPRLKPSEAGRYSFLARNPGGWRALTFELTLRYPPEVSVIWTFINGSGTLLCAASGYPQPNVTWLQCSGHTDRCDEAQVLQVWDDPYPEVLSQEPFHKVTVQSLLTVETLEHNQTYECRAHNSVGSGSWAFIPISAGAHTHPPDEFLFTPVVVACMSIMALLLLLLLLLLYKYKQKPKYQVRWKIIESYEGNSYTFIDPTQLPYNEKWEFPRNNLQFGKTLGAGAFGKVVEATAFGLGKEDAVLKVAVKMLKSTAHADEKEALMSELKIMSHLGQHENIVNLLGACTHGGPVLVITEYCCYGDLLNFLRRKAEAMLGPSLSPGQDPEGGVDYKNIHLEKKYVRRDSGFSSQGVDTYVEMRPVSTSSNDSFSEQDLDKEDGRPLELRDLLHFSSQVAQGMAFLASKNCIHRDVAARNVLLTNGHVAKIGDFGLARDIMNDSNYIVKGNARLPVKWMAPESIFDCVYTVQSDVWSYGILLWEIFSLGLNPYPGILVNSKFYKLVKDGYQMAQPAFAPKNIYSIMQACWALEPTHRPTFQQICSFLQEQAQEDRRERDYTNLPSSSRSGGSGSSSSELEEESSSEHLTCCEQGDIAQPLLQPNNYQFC

SMILES | pIC50
O=C(Nc1cc(-c2noc([C@@H]3CC(F)(F)CN3)n2)ccc1Cl)c1cnc2ccccn12 [Compound I-221] | 6.30 to 7.30
COC(=O)N1CC(c2nc(-c3ccc(C)c(NC(=O)c4cnc5cc(OC(C)(C)CO)ccn45)c3)no2)C1 [Compound I-228] | ≥ 7.30
COC(=O)N1CC(c2nc(-c3ccc(C)c(NC(=O)c4cnc5cc(OCCO)ccn45)c3)no2)C1 [Compound I-264] | ≥ 7.30

Target: T3, wtKIT
Experiment: Caliper biochemical assay, wtKIT
Settings: Table 6, read-out: KIT Biochemical IC50 avg
Procedure, shortened: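 Mobility-shift read-out: after EDTA stop, fluorescent peptide substrate and product resolved electrophoretically on LabChip 3000. Reaction ran 3 h at 25° C with 400 μM ATP, Mn^2+ cofactor, 5.0 nM wtKIT, 1 μM FAM-peptide, pH 7.5 HEPES buffer; no-enzyme wells defined full inhibition.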

SMILES | pIC50
O=C(Nc1cc(-c2noc([C@@H]3CC(F)(F)CN3)n2)ccc1Cl)c1cnc2ccccn12 [Compound I-221] | ≥ 7.30
COC(=O)N1CC(c2nc(-c3ccc(C)c(NC(=O)c4cnc5cc(OC(C)(C)CO)ccn45)c3)no2)C1 [Compound I-228] | ≥ 7.30
CCCS(=O)(=O)N1CCC1c1nc(-c2ccc(C)c(NC(=O)c3cnc4ccccn34)c2)no1 (stereo not drawn) [Compound I-242] | ≥ 7.30
COC(=O)N1CC(c2nc(-c3ccc(C)c(NC(=O)c4cnc5cc(OCCO)ccn45)c3)no2)C1 [Compound I-264] | ≥ 7.30
